Results as given in patent publication US20090069320A1, “Substituted 4-Amino-Quinazoline Compounds with Metabotropic Glutamate Receptor Regulating Activity and Uses Thereof” (Gruenenthal GmbH, priority 2006, published 2009).

Target: T1, mGluR5 receptor (Sus scrofa, UniProt I3LUI7)
T1 construct: 450 μg of protein from brain homogenate with 5 nM ^3[H]-MPEP; from tissue; host or cells: pig brain halves without medulla, cerebellum and pons
Assay: [3H]-MPEP mGluR5 receptor binding assay (pig brain homogenate)
Conditions: 10 μM compound, 5 nM [3H]-MPEP, read-out: % Inhibition of mGluR5 Receptor (pig) [^3H]-MPEP Bond at 10 μM
Protocol: I. Method for Determining the Inhibition of the [^3H]-MPEP Bond in the mGluR5 Receptor Binding Assay
Pig brain homogenate is produced by homogenizing (Polytron PT 3000, Kinematica AG, 10 000 rpm for 90 seconds) pig brain halves without medulla, cerebellum and pons in pH 8.0 buffer (20 mM Hepes, Sigma, order no. H3375+1 complete tablet, 100 ml, Roche Diagnostics, order no. 1836145) in the ratio of 1:20 (brain weight/volume) and differential centrifuging at 900×g and 40 000×g. In incubation batches of 250 μl in 96-well microtitre plates 450 μg of protein from brain homogenate with 5 nM ^3[H]-MPEP (Tocris, order no. R1212) (MPEP=[…]) and the compounds to be examined (10 μM in test) in buffer (as above) are respectively incubated at room temperature for 60 minutes.
The batches are then filtered using a Brandel cell harvester (Brandel, Robotic 9600) on unifilter plates with fibreglass filter mats (Perkin Elmer, order no. 6005177) and then washed with buffer (as above) 3-times each with 250 μl per sample. The filter plates are then dried for 60 mins. at 55° C. Then, 30 μL of Ultima Gold™ scintillator (Packard BioScience, order no. 6013159) are added per well and after 3 hours the samples are measured on the β-counter (MicroBeta, Perkin Elmer). The non-specific binding is determined by adding 10 μM of MPEP (Tocris, order no. 1212).

T1 sequence (I3LUI7 19-1212): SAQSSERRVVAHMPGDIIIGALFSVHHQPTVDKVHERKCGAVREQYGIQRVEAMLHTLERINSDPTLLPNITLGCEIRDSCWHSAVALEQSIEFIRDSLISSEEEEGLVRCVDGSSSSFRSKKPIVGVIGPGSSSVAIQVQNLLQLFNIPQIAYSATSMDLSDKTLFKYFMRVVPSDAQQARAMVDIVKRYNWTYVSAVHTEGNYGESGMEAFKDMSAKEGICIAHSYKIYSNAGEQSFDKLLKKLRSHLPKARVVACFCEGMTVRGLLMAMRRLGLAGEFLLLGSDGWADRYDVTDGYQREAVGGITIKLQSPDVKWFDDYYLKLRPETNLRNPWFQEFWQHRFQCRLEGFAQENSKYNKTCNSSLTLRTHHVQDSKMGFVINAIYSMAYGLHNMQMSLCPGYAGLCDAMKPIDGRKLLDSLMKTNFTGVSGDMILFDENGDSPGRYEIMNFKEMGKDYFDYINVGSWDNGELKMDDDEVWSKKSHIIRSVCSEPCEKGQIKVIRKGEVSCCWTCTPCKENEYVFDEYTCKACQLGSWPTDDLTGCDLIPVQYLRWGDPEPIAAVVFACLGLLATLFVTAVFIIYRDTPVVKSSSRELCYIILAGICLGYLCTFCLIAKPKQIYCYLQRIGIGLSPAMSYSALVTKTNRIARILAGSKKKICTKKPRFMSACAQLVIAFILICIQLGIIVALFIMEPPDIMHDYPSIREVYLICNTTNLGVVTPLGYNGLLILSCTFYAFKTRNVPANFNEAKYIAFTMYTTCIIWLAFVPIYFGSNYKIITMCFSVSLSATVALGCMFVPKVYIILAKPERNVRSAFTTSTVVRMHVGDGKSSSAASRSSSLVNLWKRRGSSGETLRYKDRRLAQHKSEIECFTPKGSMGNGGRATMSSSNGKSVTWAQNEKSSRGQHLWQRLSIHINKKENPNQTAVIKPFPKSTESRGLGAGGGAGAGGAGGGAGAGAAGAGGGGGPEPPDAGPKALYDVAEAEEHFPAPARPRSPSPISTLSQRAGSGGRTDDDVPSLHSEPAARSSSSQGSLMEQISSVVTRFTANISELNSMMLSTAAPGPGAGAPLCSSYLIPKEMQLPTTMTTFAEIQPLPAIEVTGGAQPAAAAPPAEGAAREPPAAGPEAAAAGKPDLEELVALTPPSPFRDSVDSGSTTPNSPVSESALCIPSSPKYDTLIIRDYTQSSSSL

inhibition at 10 µM | Compound
36% | CC(C)CN(Cc1cccc(-c2ccc3ncnc(N4CCOCC4)c3c2)c1)C(=O)c1cnccn1 [Example 13, pyrazine-2-carboxylic acid isobutyl-[3-(4-morpholin-4-yl-quinazolin-6-yl)-benzyl]-amide]
32% | Cc1ccc(C(=O)N(Cc2cccc(-c3ccc4ncnc(N5CCOCC5)c4c3)c2)CC(C)C)cc1 [Example 22, N-isobutyl-4-methyl-N-[3-(4-morpholin-4-yl-quinazolin-6-yl)-benzyl]-benzamide]
46% | CC(C)CN(Cc1cccc(-c2ccc3ncnc(N4CCOCC4)c3c2)c1)C(=O)c1cccs1 [Example 29, thiophene-2-carboxylic acid isobutyl-[3-(4-morpholin-4-yl-quinazolin-6-yl)-benzyl]-amide]
32% | CC(C)CN(Cc1cccc(-c2ccc3ncnc(N4CCOCC4)c3c2)c1)C(=O)CN(C)C [Example 31, 2-dimethylamino-N-isobutyl-N-[3-(4-morpholin-4-yl-quinazolin-6-yl)-benzyl]-acetamide]
42% | CC(C)Nc1ncnc2ccc(-c3cccc(CN(Cc4ccccc4)C(=O)c4ccccc4)c3)cc12 [Example 36, N-benzyl-N-[3-(4-isopropylamino-quinazolin-6-yl)-benzyl]-benzamide]
37% | CC(C)Nc1ncnc2ccc(-c3cccc(CN(Cc4ccccc4)C(=O)c4ccc(C#N)cc4)c3)cc12 [Example 44, N-benzyl-4-cyano-N-[3-(4-isopropylamino-quinazolin-6-yl)-benzyl]-benzamide]
48% | CC(C)Nc1ncnc2ccc(-c3cccc(CN(Cc4ccccc4)C(=O)c4cnccn4)c3)cc12 [Example 45, pyrazine-2-carboxylic acid benzyl-[3-(4-isopropylamino-quinazolin-6-yl)-benzyl]-amide]
30% | CC(C)Nc1ncnc2ccc(-c3cccc(CN(Cc4ccccc4)C(=O)c4ccsc4)c3)cc12 [Example 50, thiophene-3-carboxylic acid benzyl-[3-(4-isopropylamino-quinazolin-6-yl)-benzyl]-amide]
38% | CC(C)Nc1ncnc2ccc(-c3cccc(CN(Cc4ccccc4)C(=O)CC#N)c3)cc12 [Example 53, N-benzyl-2-cyano-N-[3-(4-isopropylamino-quinazolin-6-yl)-benzyl]-acetamide]
47% | Cc1ccc(C(=O)N(Cc2ccccc2)Cc2cccc(-c3ccc4ncnc(NC(C)C)c4c3)c2)cc1 [Example 54, N-benzyl-N-[3-(4-isopropylamino-quinazolin-6-yl)-benzyl]-4-methyl-benzamide]
43% | CCN(CC)c1ncnc2ccc(-c3cccc(CN(C)C(=O)C=Cc4ccccc4)c3)cc12 [Example 62, N-[3-(4-diethylamino-quinazolin-6-yl)-benzyl]-N-methyl-3-phenyl-acrylamide]
30% | CCN(CC)c1ncnc2ccc(-c3cccc(CN(C)C(=O)Cc4ccccn4)c3)cc12 [Example 68, N-[3-(4-diethylamino-quinazolin-6-yl)-benzyl]-N-methyl-2-pyridin-2-yl-acetamide]
38% | CCN(CC)c1ncnc2ccc(-c3cccc(CN(C)C(=O)c4cccc(C#N)c4)c3)cc12 [Example 69, 3-cyano-N-[3-(4-diethylamino-quinazolin-6-yl)-benzyl]-N-methyl-benzamide]
34% | CCN(CC)c1ncnc2ccc(-c3cccc(CN(C)C(=O)c4ccsc4)c3)cc12 [Example 70, thiophene-3-carboxylic acid [3-(4-diethylamino-quinazolin-6-yl)-benzyl]-methyl-amide]
32% | CCN(CC)c1ncnc2ccc(-c3cccc(CN(C)C(=O)c4ccc(C)cc4)c3)cc12 [Example 75, N-[3-(4-diethylamino-quinazolin-6-yl)-benzyl]-4,N-dimethyl-benzamide]
52% | CCCN(Cc1cccc(-c2ccc3ncnc(Nc4ccccc4)c3c2)c1)C(=O)c1ccccc1 [Example 89, N-[3-(4-phenylamino-quinazolin-6-yl)-benzyl]-N-propyl-benzamide]
44% | CCCN(Cc1cccc(-c2ccc3ncnc(Nc4ccccc4)c3c2)c1)C(=O)COc1ccccc1 [Example 90, 2-phenoxy-N-[3-(4-phenylamino-quinazolin-6-yl)-benzyl]-N-propyl-acetamide]
54% | CCCN(Cc1cccc(-c2ccc3ncnc(Nc4ccccc4)c3c2)c1)C(=O)c1ccc(C)cc1 [Example 91, 4-methyl-N-[3-(4-phenylamino-quinazolin-6-yl)-benzyl]-N-propyl-benzamide]

inhibition at 10 µM | Compound
74% | CCCN(Cc1cccc(-c2ccc3ncnc(Nc4ccccc4)c3c2)c1)C(=O)c1ccncc1 [Example 92, N-[3-(4-phenylamino-quinazolin-6-yl)-benzyl]-N-propyl-isonicotinamide]
38% | CCCN(Cc1cccc(-c2ccc3ncnc(Nc4ccccc4)c3c2)c1)C(=O)c1ccc(C(F)(F)F)cc1F [Example 93, 2-fluoro-N-[3-(4-phenylamino-quinazolin-6-yl)-benzyl]-N-propyl-4-trifluoromethyl-benzamide]
75% | CCCN(Cc1cccc(-c2ccc3ncnc(Nc4ccccc4)c3c2)c1)C(=O)c1ccc(OC)cc1 [Example 94, 4-methoxy-N-[3-(4-phenylamino-quinazolin-6-yl)-benzyl]-N-propyl-benzamide]
61% | CCCN(Cc1cccc(-c2ccc3ncnc(Nc4ccccc4)c3c2)c1)C(=O)c1ccccn1 [Example 95, pyridine-2-carboxylic acid [3-(4-phenylamino-quinazolin-6-yl)-benzyl]-propyl-amide]
36% | CCCN(Cc1cccc(-c2ccc3ncnc(Nc4ccccc4)c3c2)c1)C(=O)c1cc2ccccc2cn1 [Example 100, isoquinoline-3-carboxylic acid [3-(4-phenylamino-quinazolin-6-yl)-benzyl]-propyl-amide]
48% | CCCN(Cc1cccc(-c2ccc3ncnc(Nc4ccccc4)c3c2)c1)C(=O)c1cnccn1 [Example 104, pyrazine-2-carboxylic acid [3-(4-phenylamino-quinazolin-6-yl)-benzyl]-propyl-amide]
39% | CCCN(Cc1cccc(-c2ccc3ncnc(Nc4ccccc4)c3c2)c1)C(=O)Cc1ccccn1 [Example 106, N-[3-(4-phenylamino-quinazolin-6-yl)-benzyl]-N-propyl-2-pyridin-2-yl-acetamide]
31% | CCCN(Cc1cccc(-c2ccc3ncnc(Nc4ccccc4)c3c2)c1)C(=O)c1ccsc1 [Example 108, thiophene-3-carboxylic acid [3-(4-phenylamino-quinazolin-6-yl)-benzyl]-propyl-amide]
43% | CCCN(Cc1cccc(-c2ccc3ncnc(Nc4ccccc4)c3c2)c1)C(=O)c1sccc1C [Example 110, 3-methyl-thiophene-2-carboxylic acid [3-(4-phenylamino-quinazolin-6-yl)-benzyl]-propyl-amide]
46% | CCCN(Cc1cccc(-c2ccc3ncnc(Nc4ccccc4)c3c2)c1)C(=O)c1ccc(O)nc1 [Example 111, 6-hydroxy-N-[3-(4-phenylamino-quinazolin-6-yl)-benzyl]-N-propyl-nicotinamide]
33% | CCCN(Cc1cccc(-c2ccc3ncnc(Nc4ccccc4)c3c2)c1)C(=O)CC#N [Example 112, 2-cyano-N-[3-(4-phenylamino-quinazolin-6-yl)-benzyl]-N-propyl-acetamide]
50% | CCCC(=O)N(CCC)Cc1cccc(-c2ccc3ncnc(Nc4ccccc4)c3c2)c1 [Example 115, N-[3-(4-phenylamino-quinazolin-6-yl)-benzyl]-N-propyl-butyramide]
47% | CCCN(Cc1cccc(-c2ccc3ncnc(Nc4ccccc4)c3c2)c1)C(=O)c1cccs1 [Example 116, thiophene-2-carboxylic acid [3-(4-phenylamino-quinazolin-6-yl)-benzyl]-propyl-amide]
68% | CCCN(Cc1cccc(-c2ccc3ncnc(Nc4ccccc4)c3c2)c1)C(=O)c1cccnc1 [Example 117, N-[3-(4-phenylamino-quinazolin-6-yl)-benzyl]-N-propyl-nicotinamide]
52% | CCCN(Cc1cccc(-c2ccc3ncnc(Nc4ccccc4)c3c2)c1)C(=O)c1ccccc1Cl [Example 119, 2-chloro-N-[3-(4-phenylamino-quinazolin-6-yl)-benzyl]-N-propyl-benzamide]
48% | CCCN(Cc1cccc(-c2ccc3ncnc(Nc4ccccc4)c3c2)c1)C(=O)c1ccco1 [Example 120, furan-2-carboxylic acid [3-(4-phenylamino-quinazolin-6-yl)-benzyl]-propyl-amide]
37% | O=C(c1ccccc1Br)N(Cc1cccc(-c2ccc3ncnc(N4CCCC4)c3c2)c1)C1CC1 [Example 122, 2-bromo-N-cyclopropyl-N-[3-(4-pyrrolidin-1-yl-quinazolin-6-yl)-benzyl]-benzamide]
